Source: patent publication US20250120978A1, “JAK INHIBITOR WITH ERK1/2 AND/OR SHP2 INHIBITORS COMBINATION THERAPY” (Erasca, Inc., priority 2021, published 2025)

Assays:
[1] = tested on: Human JAK2V617F-positive UKE-1 cells; assay: Apoptosis by Annexin V staining and flow cytometry in UKE-1 cells; format: cell-based; conditions: 72 hours, Annexin V staining; single drug
Description: The following experiment was designed to test whether the combination of Compound 2 and ruxolitinib induces apoptosis in UKE-1 cells harboring a JAK2V617F mutation. […] Cell apoptosis was determined by Annexin V staining and flow cytometry.

[2] = tested on: JAK2V617F knock-in mouse models; assay: Splenomegaly in Jak2V617F knock-in mouse model of MPN; format: in vivo; conditions: Compound 2 30 mg/kg/per day, compared with vehicle treatment
Description: In animal models, JAK2V617F expression typically leads to the development of MPN-like disease which results in enlargement of spleen (splenomegaly), higher cell counts, and fibrotic evolution. JAK2V617F knock-in mouse models were used to investigate the effect of the combination of Compound 2 with ruxolitinib. Animals were dosed with either Compound 2, ruxolitinib, or the combination of Compound 2 with ruxolitinib. […] Data are shown in bar graphs as mean±SEM (n=4 for vehicle; n=7 for Compound 2 I; n=4 for ruxolitinib; n=7 for combo drug treatment) in FIG. 6B. (*p<0.05; **p<0.005).

COCOC[C@H]1C[C@H]2COc3c(Sc4cnc(N5CCC6(CC5)CO[C@@H](C)[C@H]6N)c(CO)n4)ccnc3N2C1 [Compound 2, (3-((3S,4S)-4-amino-3-methyl-2-oxa-8-azaspiro[4.5]decan-8-yl)-6-(((6aS,8S)-8-((methoxymethoxy)methyl)-6a,7,8,9-tetrahydro-6H-pyrido[3,2-b]pyrrolo[1,2-d][1,4]oxazin-4-yl)thio)pyrazin-2-yl)methanol]
cell apoptosis [1]: induced apoptosis
spleen size/weight [2]: significantly reduced
